# Earlier results as cited in US20030171388A1, “Cosmetic or dermatological cream composition, the preparation and the use thereof” (priority 2003, published 2003).
# Tested on: liver cell cultures
compound,measurement,value
"C[N+](C)(C)C[C@H](O)CC(=O)[O-] [L-carnitine, 3-carboxy-2-hydroxy-N,N,N-trimethyl-1-propanamium-hydroxide]",effect on the membrane potential of the mitochondrion,did not cause a loss in the membrane potential of the mitochondrion
same,prevention of cell deaths,able to prevent cell deaths
